Experimental data: patent US20250339569A1, “CARBONIC ANHYDRASE IX LIGANDS” (priority 2021, published 2025)
Read-outs that look alike come from different tables or passages of the source. Starred links: 1 amine or outer side, 2 acyl side, 3 side chain; linkers in the order of their positions; H or OH if unused. Positions of bridges follow the written chain, without caps; N, C: chain ends. Non-standard residues stand in square brackets, D forms with d. Residues, ends and D or L forms follow the SMILES beside them. *: point of attachment. Phe(3-NHCO(CH2)3SO2NH2) = N[C@@H](Cc1cccc(NC(=O)CCCS(N)(=O)=O)c1)C(=O)O; DOTA = O=C(O)CN1CCN(CC(=O)O)CCN(CC(=O)*)CCN(CC(=O)O)CC1; mXylylene = c1cc(C[*:1])cc(C[*:2])c1; X2 = O=C(CN1CCC(N[*:1])CC1)[*:2]; Dap = NC[C@H](N)C(=O)O

Key:
mouse CAIX = target: T1, mouse CAIX (Mus musculus, UniProt Q8VHB5); assay: Radioligand binding assay, 111In-labeled compounds, CHO-VGT cells with mouse CAIX; conditions: 111In-labeled compound, Mouse CAIX, 8 h at 37°C; read-out: pKD category (activity) (converted)
T1 construct: host or cells: CHO-VGT / CHO cells
Procedure: (§1) In order to assess the affinity of ^111In-labeled compounds to CAIX of different species, a radioligand binding assay was established.
(§2) CHO-VGT cells were transfected with the human, dog, and mouse CAIX (InSCREENex GmbH) and cultured in Ham's F-12 medium (Sigma-Aldrich #N4888) supplemented with 10% fetal bovine serum (FCS), 2 mM L-glutamine, 100 U/mL Penicillin, and 0.1 mg/mL streptomycin. Cells were detached with Accutase (Biolegend #423201) and counted using a particle counter (CASY Model TT; Scharfe Systems, Germany). Cell concentrations were adjusted to 3×10^5 mL^−1, and 1.000 μL of the suspension per well were dispensed into flat-clear-bottom 24 well plates.
(§3) Approximately 24 hours after re-seeding, the medium was aspirated and the cells were washed once with 1000 μL assay medium (Ham's medium without additives). To determine total binding, 700 μL of assay medium and 100 μL of the radioligand dilutions were added to the wells in triplicates. To determine non-specific binding, 600 μL of binding medium, 100 μL of the radioligand dilutions and 100 μL of a blocking solution containing 8 μM non-labeled compound were added to the wells in triplicates. At the end of incubation time (8 h at 37° C.), cells were washed and subsequently harvested in 300 μL RIPA buffer (Thermo Scientific #89901) containing Protease Inhibitor Cocktail Set I (Calbiochem #539131). Radioactivity of the cell lysate of each well was counted using a gamma counter (1470 Wizard, PerkinElmer, USA). An aliquot of each radioligand dilution was included in the gamma counter measurements to allow for determination of their actual concentrations via their known specific activity.

CAXII (hCAXII-bio) = target: T2, CAXII (hCAXII-bio) (Homo sapiens, UniProt O43570); assay: SPR selectivity assay with biotinylated CAXII; format: binding; conditions: SPR, biotinylated CAXII; read-out: pKD category (affinity) CAXII (converted)
T2 construct: purchased SinoBliological (Sino Biological) 10617-H08H
Procedure: (§4) In order to test selectivity of CAIX-binding peptides toward CAIV (SinoBliological, Cat #10472-1H081H), CAXII (SinoBliological, Cat #10617-H08H or CAXIV (SinoBliological, Cat #10458-H08H), SPR assays were performed analog to the assay described above but with a different target capture procedure. For immobilization, the carbonic anhydrases were biotinylated and capture on the SPR chip using the Biotin CAPture Kit (cytiva) according to the manufacturer instructions using HBSTE, 0.1% as Running Buffer.
(§5) Table 13 describes the protocol steps for biotinylated target capturing and assessment of the binding kinetics.

CAXIV (hCAXIV-bio) = target: T3, CAXIV (hCAXIV-bio) (Homo sapiens, UniProt Q9ULX7); assay: SPR selectivity assay with biotinylated CAXIV; format: binding; conditions: SPR, biotinylated CAXIV; read-out: pKD category (affinity) CAXIV (converted)
T3 construct: purchased SinoBliological (Sino Biological) 10458-H08H
Procedure: as §4, §5

CAIV (hCAIV-bio) = target: T4, CAIV (hCAIV-bio) (Homo sapiens, UniProt P22748); assay: SPR selectivity assay with biotinylated CAIV; format: binding; conditions: SPR, biotinylated CAIV; read-out: pKD category (affinity) CAIV (converted)
T4 construct: purchased SinoBliological (Sino Biological) 10472-1H081H
Procedure: as §4, §5

[1] = Plasma stability assay, human plasma; conditions: 37°C
dog CAIX = assay: Radioligand binding assay, 111In-labeled compounds, CHO-VGT cells with dog CAIX; conditions: 111In-labeled compound, 8 h at 37°C
Procedure: as §1, §2, §3

[2] = target: T5, Recombinant soluble human NEP (Homo sapiens, UniProt P08473); assay: Proteolytic stability assay against NEP; format: in vitro ADME; conditions: 100 ng/mL NEP, 10 μM compound, 37°C
T5 construct: Recombinant soluble human NEP; purchased BioTechne, Wiesbaden, Germany
Procedure: To assess the stability of compounds against NEP, the compounds were subjected to an in vitro assay based on the protocol described by Edelson et al. (Edelson et al., Pulmonary pharmacology & therapeutics, 2013, 26, 229-238).
Recombinant soluble human NEP (BioTechne, Wiesbaden, Germany) at a concentration of 100 ng/mL was mixed with the compound (10 μM) and a stable internal standard (10 μM) and incubated at 37° C. After several time points, samples were taken and analyzed with LC-MS.
The activity of NEP was examined using a commercially available chromogenic substrate of NEP.

[3] = target: T6, human carbonic anhydrase IX (hCAIX-Fc) (Homo sapiens, UniProt Q16790); assay: Surface plasmon resonance assay with hCAIX-Fc; format: binding; conditions: for t1/2 category (activity): SPR dissociation half-life, hCAIX-Fc
T6 construct: purchased SinoBliological (Sino Biological) 10107-H02H

[4] = Plasma stability assay, mouse plasma; conditions: mouse plasma, 37°C, 24 h
[5] = target: T7, CAIX-expressing human HT-29 colorectal cancer cells (Homo sapiens, UniProt Q16790); assay: FACS binding assay (IC50 determination, competition with tracer 3BP-2776 or 3BP-4149); conditions: 4° C., 1 hour, read-out: pIC50 category (activity) (converted)
T7 construct: CAIX-expressing human HT-29 colorectal cancer cells; host or cells: HT-29 human colorectal cancer cells
Method in brief: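 HT-29 cells in FACS buffer (PBS, 1% FCS) at 500.000 cells/ml were exposed to compounds competing with a labelled tracer, with biotinylated compounds detected by 1 μg/mL APC-streptavidin for 30 min on ice. APC/Cy5 median fluorescence was read by flow cytometry and IC50 derived by 4PL fit.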

[6] = human, plasma
[7] = mouse, plasma, 24 h
in vitro [8] = conditions: mouse, plasma
human CAIX = human CAIX (Homo sapiens, UniProt Q16790); assay: Radioligand binding assay, 111In-labeled compounds, CHO-VGT cells with human CAIX; set-up: host or cells: CHO-VGT / CHO cells; conditions: 111In-labeled compound, Human CAIX, 8 h at 37°C; read-out: pKD category (activity) (converted)
Procedure: as §1, §2, §3

in vitro [9] = conditions: human, plasma

T1 sequence (Q8VHB5 32-437): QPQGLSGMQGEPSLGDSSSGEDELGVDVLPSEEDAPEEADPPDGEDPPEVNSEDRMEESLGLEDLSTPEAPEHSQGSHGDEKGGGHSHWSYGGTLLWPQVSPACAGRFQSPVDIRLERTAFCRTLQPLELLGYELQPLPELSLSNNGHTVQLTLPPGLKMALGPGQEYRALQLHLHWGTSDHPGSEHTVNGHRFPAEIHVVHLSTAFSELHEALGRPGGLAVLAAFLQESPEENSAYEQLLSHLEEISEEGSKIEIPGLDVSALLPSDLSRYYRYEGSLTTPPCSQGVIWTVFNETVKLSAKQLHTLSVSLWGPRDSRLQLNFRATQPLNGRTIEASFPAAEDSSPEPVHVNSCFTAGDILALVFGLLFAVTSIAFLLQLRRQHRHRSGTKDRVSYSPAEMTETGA
T4 sequence (P22748 19-284): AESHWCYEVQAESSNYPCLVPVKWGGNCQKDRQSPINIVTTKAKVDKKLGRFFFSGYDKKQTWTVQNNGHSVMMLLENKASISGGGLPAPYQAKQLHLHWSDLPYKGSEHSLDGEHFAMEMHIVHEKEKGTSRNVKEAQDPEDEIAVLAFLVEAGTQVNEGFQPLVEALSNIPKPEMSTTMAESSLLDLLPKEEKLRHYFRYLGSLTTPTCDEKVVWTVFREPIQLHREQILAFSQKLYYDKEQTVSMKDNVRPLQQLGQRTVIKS
T2 sequence (O43570 25-354): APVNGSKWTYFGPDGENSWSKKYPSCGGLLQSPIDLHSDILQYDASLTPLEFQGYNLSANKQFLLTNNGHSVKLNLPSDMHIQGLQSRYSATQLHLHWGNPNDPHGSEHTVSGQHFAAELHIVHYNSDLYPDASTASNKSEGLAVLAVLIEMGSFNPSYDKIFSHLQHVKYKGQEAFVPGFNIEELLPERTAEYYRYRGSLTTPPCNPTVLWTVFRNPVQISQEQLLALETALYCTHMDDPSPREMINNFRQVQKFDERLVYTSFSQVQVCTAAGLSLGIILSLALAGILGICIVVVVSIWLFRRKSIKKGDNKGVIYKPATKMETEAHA
T3 sequence (Q9ULX7 16-337): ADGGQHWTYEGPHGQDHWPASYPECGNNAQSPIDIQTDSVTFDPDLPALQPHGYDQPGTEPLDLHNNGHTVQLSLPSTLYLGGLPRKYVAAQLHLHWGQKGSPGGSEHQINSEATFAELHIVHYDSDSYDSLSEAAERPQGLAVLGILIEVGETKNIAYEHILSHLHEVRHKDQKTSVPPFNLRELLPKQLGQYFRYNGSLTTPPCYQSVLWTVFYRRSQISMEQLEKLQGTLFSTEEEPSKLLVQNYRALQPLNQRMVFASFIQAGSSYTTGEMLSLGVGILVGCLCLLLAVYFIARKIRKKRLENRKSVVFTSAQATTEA
T5 sequence (P08473 52-750 limits assumed): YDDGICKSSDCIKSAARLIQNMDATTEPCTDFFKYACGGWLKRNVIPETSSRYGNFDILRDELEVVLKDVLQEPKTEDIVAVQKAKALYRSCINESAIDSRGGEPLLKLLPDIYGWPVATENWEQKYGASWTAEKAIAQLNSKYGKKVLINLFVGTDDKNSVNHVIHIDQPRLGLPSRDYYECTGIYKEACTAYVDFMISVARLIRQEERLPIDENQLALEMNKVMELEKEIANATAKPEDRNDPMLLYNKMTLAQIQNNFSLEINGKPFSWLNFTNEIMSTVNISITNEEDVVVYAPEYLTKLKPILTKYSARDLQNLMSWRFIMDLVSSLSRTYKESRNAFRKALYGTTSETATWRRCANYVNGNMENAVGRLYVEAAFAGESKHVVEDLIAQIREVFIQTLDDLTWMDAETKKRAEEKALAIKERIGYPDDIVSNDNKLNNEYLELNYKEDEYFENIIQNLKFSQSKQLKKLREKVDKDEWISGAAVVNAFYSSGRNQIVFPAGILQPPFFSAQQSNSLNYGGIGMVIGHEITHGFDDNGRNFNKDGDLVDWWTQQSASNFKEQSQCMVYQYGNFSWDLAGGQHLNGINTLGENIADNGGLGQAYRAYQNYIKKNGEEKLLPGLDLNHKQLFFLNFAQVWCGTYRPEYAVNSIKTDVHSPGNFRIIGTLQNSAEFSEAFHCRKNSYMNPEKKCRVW

Row | Structure (SMILES) | Kd (mouse CAIX) | Kd (CAXII (hCAXII-bio)) | Kd (CAXIV (hCAXIV-bio)) | Kd (CAIV (hCAIV-bio)) | % intact compound remaining after 24 h incubation [1] | pKD category (activity) (dog CAIX) | % intact compound remaining after 24 h incubation [2] | t1/2 category (activity) ([3]; 25° C.) | % intact compound remaining (incubation time) [4] | IC50 ([5]; FACS competition on HT-29 cells, Tracer ID 3BP-2776 (10 nM, biotin-labeled)) | % intact compound remaining after 24 h incubation [6] | % intact compound remaining (incubation time) [7] | remaining at 24 h, […] (in vitro [8]) | Kd (human CAIX) | pKD category (affinity) CAIX ([3]; SPR, hCAIX) | Kd ([3]; SPR, hCAIX-Fc captured, 25° C., read-out: pKD category (activity) (converted)) | remaining at 24 h, […] (in vitro [9]) | IC50 ([5]; FACS binding assay, HT-29 cells, competition with tracer 3BP-2776 (10 nM, biotin-labeled))
1 | CC(C)C[C@@H]1NC(=O)[C@H](Cc2c[nH]c3ccccc23)NC(=O)[C@H](CC(=O)O)NC(=O)[C@H]2CCCN2C(=O)[C@H](CCC(=O)O)NC(=O)[C@@H](NC(=O)[C@H](Cc2ccc(O)cc2)NC(=O)[C@@H](NC(=O)CN2CCC(NC(=O)CN3CCN(CC(=O)O)CCN(CC(=O)O)CCN(CC(=O)O)CC3)CC2)C(C)C)CSCc2cccc(c2)CSC[C@@H](C(N)=O)NC(=O)[C@H](CO)NC(=O)[C@H](Cc2c[nH]c3ccccc23)NC(=O)[C@H]([C@@H](C)O)NC1=O [3BP-3583, DOTA-APAc-Val-Tyr-[Cys(3MeBn)-Glu-pro-Asp-Trp-Leu-Thr-Trp-Ser-Cys]-NH2] ({DOTA}-[X2]VYCE[dP]DWLTWSC-NH2; linker 4-13 via mXylylene) | 100 to 794 nM | > 1000 nM | > 1000 nM | > 1000 nM | 71% | A (pKD values >8.0) | >95% | A (t1/2>15.0 minutes) | 79% | < 10 nM |  |  |  |  |  |  |  | 
2 | CC(C)C[C@@H]1NC(=O)[C@H](Cc2ccc(NC(=O)CCS(N)(=O)=O)cc2)NC(=O)[C@H](CC(=O)O)NC(=O)[C@H]2CCCN2C(=O)[C@H](CCC(=O)O)NC(=O)[C@@H](NC(=O)[C@H](CCC(N)=O)NC(=O)CN2CCN(CC(=O)O)CCN(CC(=O)O)CCN(CC(=O)O)CC2)CSCc2cccc(c2)CSC[C@@H](C(N)=O)NC(=O)[C@H](CO)NC(=O)[C@H](Cc2c[nH]c3ccccc23)NC(=O)[C@H]([C@@H](C)O)NC1=O (natLu complex, metal not drawn) [3BP-4581] |  |  |  |  |  |  |  |  |  |  | >95% | >95% |  |  |  |  |  | 
3 | CC(C)C[C@@H]1NC(=O)[C@H](Cc2cccc(NC(=O)CCCS(N)(=O)=O)c2)NC(=O)[C@H](CC(=O)O)NC(=O)[C@H]2CCCN2C(=O)[C@H](CCC(=O)O)NC(=O)[C@@H]2CSCc3cccc(c3)CSC[C@@H](C(N)=O)NC(=O)[C@H](CNC(=O)CC[C@H](NC(=O)CN3CCN(CC(=O)O)CCN(CC(=O)O)CCN(CC(=O)O)CC3)C(=O)N2)NC(=O)[C@H](Cc2c[nH]c3ccccc23)NC(=O)[C@H]([C@@H](C)O)NC1=O [3BP-4503, DOTA-{Glu-[Cys(3MeBn)-Glu-pro-Asp-Af3(Cpsu)-Leu-Thr-Trp-Dap}-Cys]-NH2] ({DOTA}-ECE[dP]D[Phe(3-NHCO(CH2)3SO2NH2)]LTW[Dap]C-NH2; lactam 1-10; linker 2-11 via mXylylene) | < 10 nM | > 1000 nM | > 1000 nM | > 1000 nM |  | A (pKD values >8.0) |  | A (t1/2>15.0 minutes) |  |  |  |  | > 95% | < 10 nM | A (pKD values >8.0) | < 10 nM | > 95% | < 10 nM
